Test system: PBMC (polyclonal gluten-specific T cells) of paediatric and adult CD patients
Test: IFN-γ ELISpot of PBMC after 3 day oral wheat challenge (SFU, % of maximal peptide response, dominance scores, EC50; Examples 5-6)
Format: cell-based, human
Conditions: for IFN-γ ELISpot response: after oral wheat challenge; for IFN-γ ELISpot responses Day 0 prior to vs Day 6 after wheat challenge: p<0.05, Kruskal Wallis
[1] = patient A, 11-17 yrs, cut-off 10 SFU
[2] = patient E, H, 11-17 yrs, cut-off 10 SFU
[3] = patient F, 11-17 yrs, cut-off 10 SFU
[4] = patient G, 11-17 yrs, cut-off 10 SFU
[5] = patient H (HLA-DQ2.5 homozygote), 3-5yrs, cut-off 10 SFU
[6] = patient H, 11-17 yrs, cut-off 10 SFU
[7] = patient ID not given, 11-17 yrs, cut-off 10 SFU
[8] = patient N, 3-5yrs, cut-off 10 SFU
[9] = patient P, 11-17 yrs, cut-off 21.6 SFU
[10] = patient Q, 11-17 yrs, cut-off 10 SFU
[11] = patient U, H, 11-17 yrs, cut-off 10 SFU
[12] = patient V, 6-10 yrs, cut-off 10 SFU
[13] = patient Y, 6-10 yrs, cut-off 10 SFU
[14] = patient eleven, 6-10 yrs, cut-off 10 SFU
[15] = patient four, 3-5yrs, cut-off 10 SFU
[16] = patient seven, 6-10 yrs, cut-off 10.5 SFU
[17] = patient ten, 3-5yrs, cut-off 10 SFU
[18] = patient three, 6-10 yrs, cut-off 10.5 SFU
[19] = patient twelve, 11-17 yrs, cut-off 10 SFU
[20] = patient two, 3-5yrs, cut-off 10 SFU

Row | Substance | IFN-γ ELISpot response [1] [SFU] | IFN-γ ELISpot response [2] [SFU] | IFN-γ ELISpot response [3] [SFU] | IFN-γ ELISpot response [4] [SFU] | IFN-γ ELISpot response [5] [SFU] | IFN-γ ELISpot response [6] [SFU] | IFN-γ ELISpot response [7] [SFU] | IFN-γ ELISpot response [8] [SFU] | IFN-γ ELISpot response [9] [SFU] | IFN-γ ELISpot response [10] [SFU] | IFN-γ ELISpot response [11] [SFU] | IFN-γ ELISpot response [12] [SFU] | IFN-γ ELISpot response [13] [SFU] | IFN-γ ELISpot response [14] [SFU] | IFN-γ ELISpot response [15] [SFU] | IFN-γ ELISpot response [16] [SFU] | IFN-γ ELISpot response [17] [SFU] | IFN-γ ELISpot response [18] [SFU] | IFN-γ ELISpot response [19] [SFU] | IFN-γ ELISpot response [20] [SFU] | also measured
1 | TIPEQPEQPFPLQ | 0 | 224 | 14 | 2 | 2 | 4 | 6 | 3 | 7 | 8 | 5 | 0 | 2 | 3 | 3 | 1 | 5 | 18 | 1 | 11 | Significant response as percentage of maximal peptide SFU (patient E, max peptide 224 SFU): + (>70% = +); Significant response as percentage of maximal peptide SFU (patient F, max peptide 178 SFU): (6-10% = ^); Significant response as percentage of maximal peptide SFU (patient J, max peptide 196 SFU): (6-10% = ^); Significant response as percentage of maximal peptide SFU (patient two, max peptide 60 SFU): ′ (11-20% = ′)
2 | W09 (PQPFLPELPYPQP) [Peptide W09] | – | – | – | – | – | – | – | – | – | – | – | – | – | – | – | – | – | – | – | – | Dominance score 3-5yrs (n = 9) (CD children 3-5yrs, n = 9, following wheat challenge, mean percentage of maximal peptide response): 30.7; Dominance score 6-10yrs (n = 10) (CD children 6-10yrs, n = 10, following wheat challenge, mean percentage of maximal peptide response): 28.6; Dominance score 11-18yrs (n = 11) (CD children 11-18yrs, n = 11, following wheat challenge, mean percentage of maximal peptide response): 19.1; Dominance score Mean all ages (CD children, all ages, following wheat challenge (Table 9)): 25.2
3 | YEVIRSLVLRTLPN | 20 | 1 | 2 | 1 | 0 | 3 | 1 | 2 | 49 | 2 | 3 | 3 | 1 | 1 | 1 | 10 | 3 | 4 | 0 | 1 | Significant response as percentage of maximal peptide SFU (patient A, max peptide 20 SFU): + (>70% = +); Significant response as percentage of maximal peptide SFU (patient P, max peptide 64 SFU): + (>70% = +); Significant response as percentage of maximal peptide SFU (patient W, max peptide 30 SFU): + (>70% = +)
4 | tetanus toxoid: positive control antigen (CSL, Australia) [reference compound] | – | – | – | – | – | – | – | – | – | – | – | – | – | – | – | – | – | – | – | – | IFN-γ ELISpot responses Day 0 prior to vs Day 6 after wheat challenge: no difference; IFN-γ ELISpot responses Day 0 prior to vs Day 6 after wheat challenge (listed as Tetanus toxoid): did not differ
